Several values for one entry are separate records, joined by “and”; a condition that tells them apart may be missing. Identical values can stand only once.
Assays:
[1] = target: Endonuclease 8-like 1 (Homo sapiens) (UniProt Q96FI4); conditions: Compound Concentration 10.0 uM, Hit No;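 note: fluorescence at 594 nm from quenched duplex DNA oligonucleotides released by NEIL1 cleavage and strand separation, reported as reduction of this enzyme activity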
Description: Inhibition of NEIL1 by quantifying inhibition of NEIL1-mediated cleavage and dissociation of quenched duplex DNA oligonucleotides, measured as fluorescence at 594 nm.

[2] = target: T1, Adenine DNA glycosylase (Homo sapiens) (UniProt Q9UIF7); conditions: Compound Concentration 10.0 uM, Hit No;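 note: human MUTYH activity read as 594 nm fluorescence from cleavage and release of a quenched DNA duplex, coupled with APE1 for strand incision, lower signal meaning inhibition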
T1 sequence (whole entry): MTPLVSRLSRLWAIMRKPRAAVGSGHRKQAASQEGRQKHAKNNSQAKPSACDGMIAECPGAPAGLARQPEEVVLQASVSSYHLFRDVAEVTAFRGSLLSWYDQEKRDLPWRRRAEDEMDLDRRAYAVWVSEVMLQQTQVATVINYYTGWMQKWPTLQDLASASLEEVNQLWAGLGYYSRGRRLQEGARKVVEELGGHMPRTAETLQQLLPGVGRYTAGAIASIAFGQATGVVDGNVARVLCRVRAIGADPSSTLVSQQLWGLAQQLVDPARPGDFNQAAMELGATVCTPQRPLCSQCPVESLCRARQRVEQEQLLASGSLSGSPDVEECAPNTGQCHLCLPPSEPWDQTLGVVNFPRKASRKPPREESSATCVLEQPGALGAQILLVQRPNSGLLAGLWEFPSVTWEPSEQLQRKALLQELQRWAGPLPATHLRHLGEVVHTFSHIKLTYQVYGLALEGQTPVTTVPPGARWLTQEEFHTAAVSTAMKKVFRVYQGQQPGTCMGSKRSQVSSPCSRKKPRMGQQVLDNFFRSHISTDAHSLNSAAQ
Description: Inhibition of MUTYH by quantifying inhibition of MUTYH-mediated cleavage and dissociation of quenched duplex DNA oligonucleotides, measured as fluorescence at 594 nm. To generate a functional strand incision and increase turn-over this assay is coupled to APE1.

[3] = target: Methyl-CpG-binding domain protein 4 (Homo sapiens) (UniProt O95243); conditions: Compound Concentration 10.0 uM, Hit No;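 note: MBD4 activity read as fluorescence at 594 nm from cleavage and release of a quenched duplex DNA oligonucleotide, with APE1 coupled to incise the strand and raise turnover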
Description: Inhibition of MBD4 by quantifying inhibition of MBD4-mediated cleavage and dissociation of quenched duplex DNA oligonucleotides, measured as fluorescence at 594 nm. To generate a functional strand incision and increase turn-over this assay is coupled to APE1.

[4] = target: G/T mismatch-specific thymine DNA glycosylase (Homo sapiens) (UniProt Q13569); conditions: Compound Concentration 10.0 uM;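 note: human TDG cleavage of quenched duplex DNA oligonucleotides coupled to APE1, strand release read as fluorescence at 594 nm, inhibition of TDG activity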
Description: Inhibition of TDG by quantifying inhibition of TDG-mediated cleavage and dissociation of quenched duplex DNA oligonucleotides, measured as fluorescence at 594 nm. To generate a functional strand incision and increase turn-over this assay is coupled to APE1.

[5] = target: DNA-3-methyladenine glycosylase (Homo sapiens) (UniProt P29372); conditions: Compound Concentration 10.0 uM, Hit No;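 note: enzyme assay where MPG cuts a quenched duplex DNA oligonucleotide probe, paired with APE1 for strand incision and turnover, read as fluorescence at 594 nm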
Description: Inhibition of MPG by quantifying inhibition of MPG-mediated cleavage and dissociation of quenched duplex DNA oligonucleotides, measured as fluorescence at 594 nm. To generate a functional strand incision and increase turn-over this assay is coupled to APE1.

[6] = target: T2, Single-strand selective monofunctional uracil DNA glycosylase (Homo sapiens) (UniProt Q53HV7); conditions: Compound Concentration 10.0 uM, Hit No;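 note: enzymatic SMUG1 assay coupled with APE1, reading fluorescence at 594 nm released when a quenched double-stranded DNA oligonucleotide substrate is cleaved and separated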
T2 sequence (whole entry): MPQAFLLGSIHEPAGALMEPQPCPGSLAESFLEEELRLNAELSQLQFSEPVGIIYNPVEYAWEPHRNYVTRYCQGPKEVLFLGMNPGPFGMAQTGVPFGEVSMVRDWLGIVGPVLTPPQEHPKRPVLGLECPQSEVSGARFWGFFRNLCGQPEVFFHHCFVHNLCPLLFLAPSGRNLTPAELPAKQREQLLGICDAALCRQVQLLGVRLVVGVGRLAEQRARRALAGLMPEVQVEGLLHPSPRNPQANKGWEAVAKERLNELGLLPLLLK
Description: Inhibition of SMUG1 by quantifying inhibition of SMUG1-mediated cleavage and dissociation of quenched duplex DNA oligonucleotides, measured as fluorescence at 594 nm. To generate a functional strand incision and increase turn-over this assay is coupled to APE1.

[7] = target: T3, Endonuclease 8-like 2 (Homo sapiens) (UniProt Q969S2); conditions: Compound Concentration 10.0 uM, Hit No;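 note: fluorescence at 594 nm reports NEIL2 cutting and release of a quenched double-stranded DNA oligo substrate, reduced signal read as inhibition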
T3 sequence (whole entry): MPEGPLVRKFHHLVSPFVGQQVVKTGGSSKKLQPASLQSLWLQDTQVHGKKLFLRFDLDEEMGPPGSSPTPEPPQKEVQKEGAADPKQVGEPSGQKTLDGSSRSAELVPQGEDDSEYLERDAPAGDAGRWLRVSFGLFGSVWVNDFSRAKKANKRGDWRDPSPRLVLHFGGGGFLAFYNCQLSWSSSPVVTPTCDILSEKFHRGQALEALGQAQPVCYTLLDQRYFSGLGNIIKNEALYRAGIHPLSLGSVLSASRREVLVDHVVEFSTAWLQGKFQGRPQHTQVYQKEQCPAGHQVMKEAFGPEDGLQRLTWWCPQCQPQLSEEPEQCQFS
Description: Inhibition of NEIL2 by quantifying inhibition of NEIL2-mediated cleavage and dissociation of quenched duplex DNA oligonucleotides, measured as fluorescence at 594 nm.

[8] = target: Uracil-DNA glycosylase (Homo sapiens) (UniProt P13051); conditions: Compound Concentration 10.0 uM, Hit No;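 note: UNG excision on a quenched double-stranded DNA oligo probe, with APE1 added for strand incision and turnover, read as fluorescence at 594 nm as strands separate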
Description: Inhibition of UNG by quantifying inhibition of UNG-mediated cleavage and dissociation of quenched duplex DNA oligonucleotides, measured as fluorescence at 594 nm. To generate a functional strand incision and increase turn-over this assay is coupled to APE1.

[9] = target: N-glycosylase/DNA lyase (Homo sapiens) (UniProt O15527); conditions: Compound Concentration 10.0 uM;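 note: OGG1 cleavage of a quenched duplex DNA oligonucleotide, coupled to APE1 for strand incision, read as fluorescence at 594 nm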
Description: Inhibition of OGG1 by quantifying inhibition of OGG1-mediated cleavage and dissociation of quenched duplex DNA oligonucleotides, measured as fluorescence at 594 nm. To generate a functional strand incision and increase turn-over this assay is coupled to APE1.

[10] = target: T4, Endonuclease III-like protein 1 (Homo sapiens) (UniProt P78549); conditions: Compound Concentration 10.0 uM, Hit No;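 note: enzyme assay tracking NTHL1 cutting and release of a quenched double-stranded DNA oligo substrate, read as fluorescence at 594 nm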
T4 sequence (whole entry): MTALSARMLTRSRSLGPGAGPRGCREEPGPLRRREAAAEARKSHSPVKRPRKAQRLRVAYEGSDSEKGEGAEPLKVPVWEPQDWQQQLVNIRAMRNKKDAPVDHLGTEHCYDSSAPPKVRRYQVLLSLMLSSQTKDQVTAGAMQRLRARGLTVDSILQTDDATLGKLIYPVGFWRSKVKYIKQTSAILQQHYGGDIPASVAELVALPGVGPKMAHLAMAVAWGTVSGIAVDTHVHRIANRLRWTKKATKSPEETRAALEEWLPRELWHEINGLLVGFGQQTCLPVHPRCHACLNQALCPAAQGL
Description: Inhibition of NTHL1 by quantifying inhibition of NTHL1-mediated cleavage and dissociation of quenched duplex DNA oligonucleotides, measured as fluorescence at 594 nm.

Sequence of N-glycosylase/DNA lyase (Homo sapiens) (O15527 whole entry): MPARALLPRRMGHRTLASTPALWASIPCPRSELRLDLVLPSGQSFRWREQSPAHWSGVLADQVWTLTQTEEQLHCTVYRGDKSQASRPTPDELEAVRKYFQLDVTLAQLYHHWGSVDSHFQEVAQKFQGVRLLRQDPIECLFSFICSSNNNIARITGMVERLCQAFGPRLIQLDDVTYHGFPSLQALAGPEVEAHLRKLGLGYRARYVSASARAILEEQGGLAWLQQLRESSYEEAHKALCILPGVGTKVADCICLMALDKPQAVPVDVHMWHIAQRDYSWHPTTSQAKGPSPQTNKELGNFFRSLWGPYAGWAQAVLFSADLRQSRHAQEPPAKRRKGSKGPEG
Sequence of Uracil-DNA glycosylase (Homo sapiens) (P13051 whole entry): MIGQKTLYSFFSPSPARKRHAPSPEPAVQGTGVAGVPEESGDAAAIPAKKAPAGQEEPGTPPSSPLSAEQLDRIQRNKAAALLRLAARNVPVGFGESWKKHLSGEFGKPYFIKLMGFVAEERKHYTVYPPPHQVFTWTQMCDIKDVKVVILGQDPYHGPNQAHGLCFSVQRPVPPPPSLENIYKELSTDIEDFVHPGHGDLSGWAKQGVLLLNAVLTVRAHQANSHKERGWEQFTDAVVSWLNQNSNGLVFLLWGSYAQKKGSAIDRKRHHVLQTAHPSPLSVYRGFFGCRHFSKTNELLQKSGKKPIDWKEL
Sequence of Methyl-CpG-binding domain protein 4 (Homo sapiens) (O95243 whole entry, the tested form may be a part): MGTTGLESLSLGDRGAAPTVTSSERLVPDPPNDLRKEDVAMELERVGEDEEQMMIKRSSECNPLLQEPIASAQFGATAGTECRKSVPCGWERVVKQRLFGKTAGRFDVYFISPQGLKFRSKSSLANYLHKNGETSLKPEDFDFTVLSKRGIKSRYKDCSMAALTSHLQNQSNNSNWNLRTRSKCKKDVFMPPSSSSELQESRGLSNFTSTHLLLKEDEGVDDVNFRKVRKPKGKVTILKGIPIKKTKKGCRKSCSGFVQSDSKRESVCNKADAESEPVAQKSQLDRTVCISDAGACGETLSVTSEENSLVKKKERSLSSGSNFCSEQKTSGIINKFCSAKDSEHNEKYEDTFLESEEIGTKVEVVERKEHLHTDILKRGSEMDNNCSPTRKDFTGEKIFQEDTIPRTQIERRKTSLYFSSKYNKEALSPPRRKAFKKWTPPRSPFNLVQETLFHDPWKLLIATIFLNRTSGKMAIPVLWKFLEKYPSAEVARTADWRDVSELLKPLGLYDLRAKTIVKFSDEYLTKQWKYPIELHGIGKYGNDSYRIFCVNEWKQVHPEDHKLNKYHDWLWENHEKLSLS
Sequence of DNA-3-methyladenine glycosylase (Homo sapiens) (P29372 whole entry): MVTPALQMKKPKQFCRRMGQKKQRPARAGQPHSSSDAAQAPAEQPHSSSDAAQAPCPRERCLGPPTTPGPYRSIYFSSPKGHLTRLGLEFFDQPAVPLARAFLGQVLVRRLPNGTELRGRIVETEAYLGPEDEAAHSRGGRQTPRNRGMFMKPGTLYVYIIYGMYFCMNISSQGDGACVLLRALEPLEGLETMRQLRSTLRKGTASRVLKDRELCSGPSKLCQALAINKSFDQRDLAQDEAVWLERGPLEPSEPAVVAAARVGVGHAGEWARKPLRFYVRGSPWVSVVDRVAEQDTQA
Sequence of Endonuclease 8-like 1 (Homo sapiens) (Q96FI4 whole entry): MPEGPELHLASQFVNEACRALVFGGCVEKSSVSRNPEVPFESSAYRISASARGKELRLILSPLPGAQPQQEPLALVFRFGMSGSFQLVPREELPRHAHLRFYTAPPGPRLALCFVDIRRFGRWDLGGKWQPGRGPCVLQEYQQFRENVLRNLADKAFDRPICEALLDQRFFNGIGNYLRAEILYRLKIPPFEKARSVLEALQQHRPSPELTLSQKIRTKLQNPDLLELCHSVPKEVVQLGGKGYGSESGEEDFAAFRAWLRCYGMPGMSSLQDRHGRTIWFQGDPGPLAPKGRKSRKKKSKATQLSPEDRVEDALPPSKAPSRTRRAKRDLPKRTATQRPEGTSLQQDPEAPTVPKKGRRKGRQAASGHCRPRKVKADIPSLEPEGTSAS
Sequence of G/T mismatch-specific thymine DNA glycosylase (Homo sapiens) (Q13569 whole entry): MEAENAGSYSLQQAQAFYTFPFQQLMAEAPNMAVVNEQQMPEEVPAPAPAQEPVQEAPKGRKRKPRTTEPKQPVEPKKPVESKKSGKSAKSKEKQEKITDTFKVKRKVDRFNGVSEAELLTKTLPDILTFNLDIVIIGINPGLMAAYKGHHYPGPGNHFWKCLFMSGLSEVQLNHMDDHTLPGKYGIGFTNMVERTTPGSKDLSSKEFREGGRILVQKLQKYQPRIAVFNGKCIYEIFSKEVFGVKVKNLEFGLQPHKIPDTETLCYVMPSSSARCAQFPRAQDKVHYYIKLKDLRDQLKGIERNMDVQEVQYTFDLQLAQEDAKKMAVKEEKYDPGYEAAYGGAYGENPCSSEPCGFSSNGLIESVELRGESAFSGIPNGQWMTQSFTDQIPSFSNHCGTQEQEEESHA

| Compound | inhibition [1] | inhibition [2] [%] | inhibition [3] [%] | inhibition ([4]; Hit No) [%] | inhibition [5] [%] | inhibition [6] [%] | inhibition [7] | inhibition [8] [%] | inhibition ([9]; Hit No) [%] | inhibition [10] [%] | inhibition ([4]; Hit Yes) [%] | inhibition ([9]; Hit Yes) [%] |
| --- | --- | --- | --- | --- | --- | --- | --- | --- | --- | --- | --- | --- |
| N=C(N)NCCSC(=N)N | -7.55% | -5.42 | 16.4 | 8.29 | -0.668 | -6.96 | -9.52% | -5.32 | -4.9 | -1.08 |  |  |
| COc1ccc(CCCN2CCC(COC(c3ccccc3)c3ccccc3)CC2)cc1 | 4.75% | 35 | 49.2 | 47.6 | 47.2 | 9.31 | 8.06% | -1.12 | -0.567 | 13.8 |  |  |
| CCCCc1nc(Cl)c(CO)n1Cc1ccc(-c2ccccc2-c2nnn[nH]2)cc1 | -2.87% | 4.88 | 1.95 | 8.31 | -2.79 | -6.19 |  | -9.96 | -0.971 | 11.4 |  |  |
| COc1ccc2[nH]c(I)c(CCNC(C)=O)c2c1 | -5.77% | 10.2 | 8.97 | 3.33 | -6.47 | -7.64 |  | -9.84 | -3.69 | -1.91 |  |  |
| CCCNS(=O)(=O)Nc1ncnc(OCCOc2ncc(Br)cn2)c1-c1ccc(Br)cc1 | -4.06% | 26.1 | 24.4 | 18.3 | 19 | -4.93 | 2.51% |  | 2.2 | 7.05 |  |  |
| COc1ccc2c(c1)C(C(=O)N(Cc1ccc(N(C)C)cc1)c1ccc(C(C)C)cc1)CCC2 (stereo not drawn) | 4.6% | 34.4 | 26.8 | 15.3 | 34.2 | -6.91 |  | -2.75 | 3.53 | 0.568 |  |  |
| CN[C@@H]1Cc2cccc3[nH]c(=O)n(c23)C1 | -2.21% | 46.8 | 11.7 | 15.8 | -1.72 | 0.551 |  | -3.54 | -6.94 | 21.2 |  |  |
| CC(C)(O)c1ccccc1CC[C@@H](SCC1(CC(=O)O)CC1)c1cccc(/C=C/c2ccc3ccc(Cl)cc3n2)c1 |  | 47.1 | 56.1 |  | 53.9 | 11.9 | 14% | 8.83 |  | 9.99 | 66.5 | 61.2 |
| N=C(N)NC(=O)Cc1c(Cl)cccc1Cl | 10.8% | -4.2 | -6.99 | 3.06 | -0.939 | 3.31 | 12.5% |  | -0.992 | 20.2 |  |  |
| CCCCCNC(=O)NS(=O)(=O)c1cc([N+](=O)[O-])ccc1NC1CCCCC1 | -1.39% | 30.5 | 22.7 | 23.6 | 19.1 | 13.9 | 14.5% |  | 8.51 | 14.4 |  |  |
| O=C(O)c1n[nH]c2c1C[C@H]1C[C@@H]21 | -0.352% and 3.65% | -6.12 | -4.32 | -5.48 | -4.72 | -5.22 | -1.48% and -4.98% |  | -1.41 | 21.7 |  |  |
| Cc1cccc(C2CN(C)CCc3c2cc(O)c(O)c3Cl)c1 (stereo not drawn) | -4.88% | 33.4 | 26.4 | 27.7 | 15 | -3.57 |  | -2.8 | -8.27 | 7.17 |  |  |
| COc1cccc([C@H](O)C2CCN(CCc3ccc(F)cc3)CC2)c1OC | -1.98% | -6.25 | 14.4 | 22.3 | -10 | 4.47 | -8.72% |  | -1.39 | 3.39 |  |  |
| CC(C)[C@@H]1CC[C@@H](C)C[C@@H]1P(=O)(c1ccccc1)c1ccccc1 | -6.96% | 1.29 | 3.26 | -6.96 | -5.97 | -9.39 |  |  | -2.54 | 6.35 |  |  |
| Cc1cc(C)cc(-c2cnc3cc(Cl)c(-c4cccc(O)c4)cc3c2OCCCN)c1 |  | -5.74 | 9.27 | 24.4 | 9.86 | 14.7 | 2.26% | -7.52 | -3.25 | -4.67 |  |  |
| COc1cc(N)c(Cl)cc1C(=O)NC1CN2CCC1CC2 (stereo not drawn) | -0.139% | 0.595 | -9.33 | -0.441 | -7.22 | -3.07 |  | -6.64 | 1 | 17.1 |  |  |
| Cc1nnn(-c2ccc(-c3ccc(C4(C(=O)O)CC4)cc3)cc2)c1NC(=O)O[C@H](C)c1ccccc1 | -1.39% | 17.2 | 34.4 | 20.7 | 13.9 | 4.91 | 4.01% |  | -1.41 | -7.6 |  |  |
| CCCCC[C@H](O)/C=C/[C@H]1[C@H](O)CC(=O)[C@@H]1CCCCCCC(=O)O | 4.31% | -0.521 | 3.22 | 19.5 | 6.53 | -7.25 |  | -7.06 | -9.68 | 22.9 |  |  |
| N[C@@H](Cn1cc(F)c(=O)[nH]c1=O)C(=O)O | -2.06% | 6.98 | 3.94 | 12.4 | 0.976 | -7.64 |  | -5.2 | -9.73 | 0.568 |  |  |
| O=C(NCCNCC(O)COc1ccc(O)cc1)N1CCOCC1 (stereo not drawn) | 1.79% | -0.651 | 9.4 | 9.41 | -2.83 | -1.43 |  | -5.67 | -7.78 | 8 |  |  |
| CC[C@H]1CN(c2nc(N)c(C(N)=O)nc2Cl)CCN1C1CCN(Cc2ccc(Cl)cc2)CC1 | 5.05% | -3.97 | -2.17 | 2.57 | -5.95 | -7.08 | 3.47% | -8.52 |  | 24.5 |  |  |
| N#Cc1ccc(O[C@@H]2c3ccccc3C[C@H]2N2CCC[C@@H](N)C2)c(Cl)c1 | 13.1% | 0.102 | -4.66 | 18.8 | -4.18 | -4.87 | 3.73% | -1.13 |  | 3.87 |  |  |
| CSc1cc2c(cc1C(F)(F)F)N(C(=O)Nc1cccnc1)CC2 | 6.91% | -9.06 | -9.84 | 11.2 | -3.29 | 4.28 | 16.2% |  | -1.82 | 5.59 |  |  |

Reference: ChEMBL document CHEMBL5665443, “Enzyme Inhibitor Single Concentration assay results for EUbOPEN Chemogenomics Library” (2024)
